Reference: ChEMBL document CHEMBL1201862, “PubChem BioAssay data set” (2004)
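Values below derive from 48-hour exposures of cells grown in 96-well plates, with endpoints linearly interpolated between the two concentrations bracketing the appropriate inhibition level. GI50 = concentration required for 50% inhibition of growth.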 The source made the active and inactive calls. No stated cut-off is given here; in the data, active = GI50 up to about 1.1 µM and inactive = higher.

Experiments:
Test in all cases: NCI tumour cell line growth inhibition, 48 h
[1] = test system: A498
[2] = test system: ACHN
[3] = test system: CAKI-1
[4] = test system: DU-145
[5] = test system: HL-60
[6] = test system: HOP-92
[7] = test system: Hs-578T
[8] = test system: M14
[9] = test system: MCF7
[10] = test system: NCI-H23
[11] = test system: NCI-H522
[12] = test system: OVCAR-5
[13] = test system: PC-3
[14] = test system: SK-MEL-28
[15] = test system: SNB-19
[16] = test system: SNB-75
[17] = test system: SR
[18] = test system: T47D
[19] = test system: UACC-62
[20] = test system: SK-MEL-2

For `Cn1c(=O)c2c(nc(N)n2C2OC(CO)C(O)C2O)n(C)c1=O` (centres undefined), the GI50 [1] was > 100 µM (inactive), the GI50 [2] was > 100 µM (inactive) and the GI50 [3] was > 100 µM (inactive). The GI50 [4] was > 100 µM (inactive), the GI50 [5] was > 100 µM (inactive) and the GI50 [6] was 61.9 µM (inactive). The GI50 [7] was > 100 µM (inactive), the GI50 [8] was > 100 µM (inactive) and the GI50 [9] was > 100 µM (inactive). The GI50 [10] was > 100 µM (inactive), the GI50 [11] was > 100 µM (inactive) and the GI50 [12] was > 100 µM (inactive). For the same molecule, the GI50 [13] was > 100 µM (inactive), the GI50 [14] was > 100 µM (inactive) and the GI50 [15] was > 100 µM (inactive). For the same molecule, the GI50 [16] was > 100 µM (inactive), the GI50 [17] was > 100 µM (inactive) and the GI50 [18] was > 100 µM (inactive). For the same molecule, the GI50 [19] was > 100 µM (inactive).

`NC1(CCNC(=O)c2ccccc2)CCN(C(=O)c2ccccc2)CC1` was tested, and the GI50 [2] was > 100 µM (inactive), the GI50 [3] was > 100 µM (inactive) and the GI50 [4] was > 100 µM (inactive). For the same molecule, the GI50 [6] was 50.7 µM (inactive), the GI50 [7] was > 100 µM (inactive) and the GI50 [8] was > 100 µM (inactive). The GI50 [9] was > 100 µM (inactive), the GI50 [10] was > 100 µM (inactive) and the GI50 [11] was 3.67 µM (inactive). For the same molecule, the GI50 [12] was > 100 µM (inactive), the GI50 [13] was > 100 µM (inactive) and the GI50 [20] was 34.4 µM (inactive). For the same molecule, the GI50 [15] was > 100 µM (inactive), the GI50 [16] was 0.548 µM (active) and the GI50 [17] was > 100 µM (inactive). For the same molecule, the GI50 [18] was > 100 µM (inactive) and the GI50 [19] was > 100 µM (inactive).

For `CC1(C)Oc2ccc3c(=O)cc(-c4cccs4)oc3c2C1C(=O)O` (centres undefined), the GI50 [1] was > 100 µM (inactive), the GI50 [3] was 23.2 µM (inactive) and the GI50 [4] was > 100 µM (inactive). The GI50 [5] was > 100 µM (inactive), the GI50 [7] was > 100 µM (inactive) and the GI50 [8] was > 100 µM (inactive). The GI50 [9] was > 100 µM (inactive), the GI50 [10] was > 100 µM (inactive) and the GI50 [11] was > 100 µM (inactive). For the same molecule, the GI50 [12] was > 100 µM (inactive), the GI50 [13] was > 100 µM (inactive) and the GI50 [20] was > 100 µM (inactive). For the same molecule, the GI50 [17] was > 100 µM (inactive), the GI50 [18] was > 100 µM (inactive) and the GI50 [19] was > 10 µM (inactive).

For `O=C(Cc1nc2ncccc2[nH]c1=O)c1c[nH]c2ccccc12`, the GI50 [1] was 17.7 µM (inactive), the GI50 [2] was 16.5 µM (inactive) and the GI50 [3] was 17.4 µM (inactive). The GI50 [4] was 17.5 µM (inactive), the GI50 [5] was 32.1 µM (inactive) and the GI50 [6] was 17.7 µM (inactive). The GI50 [7] was 18.6 µM (inactive), the GI50 [8] was 21 µM (inactive) and the GI50 [9] was 16.9 µM (inactive). The GI50 [10] was 21.6 µM (inactive), the GI50 [11] was 16.6 µM (inactive) and the GI50 [12] was 24.2 µM (inactive). For the same molecule, the GI50 [13] was 16 µM (inactive), the GI50 [14] was 15.1 µM (inactive) and the GI50 [20] was 14.9 µM (inactive). The GI50 [15] was 18.3 µM (inactive), the GI50 [17] was 30 µM (inactive) and the GI50 [18] was 17.6 µM (inactive). The GI50 [19] was 16.8 µM (inactive).

`N#Cc1nc(C2CC2)oc1N` was tested, and the GI50 [2] was > 100 µM (inactive), the GI50 [3] was > 100 µM (inactive) and the GI50 [4] was > 100 µM (inactive). For the same molecule, the GI50 [6] was > 100 µM (inactive), the GI50 [7] was > 100 µM (inactive) and the GI50 [8] was > 100 µM (inactive). The GI50 [9] was > 100 µM (inactive), the GI50 [10] was > 100 µM (inactive) and the GI50 [11] was 25.2 µM (inactive). The GI50 [12] was > 100 µM (inactive), the GI50 [13] was > 100 µM (inactive) and the GI50 [14] was > 100 µM (inactive). The GI50 [20] was > 100 µM (inactive), the GI50 [15] was > 100 µM (inactive) and the GI50 [16] was > 100 µM (inactive). The GI50 [17] was > 100 µM (inactive), the GI50 [18] was > 100 µM (inactive) and the GI50 [19] was > 100 µM (inactive).

For `Cc1ccc2cc3c(ccc4ccccc43)c3c2c1CC3` [3-METHYLCHOLANTHRENE], the GI50 [2] was > 100 µM (inactive), the GI50 [3] was > 100 µM (inactive) and the GI50 [4] was > 100 µM (inactive). For the same molecule, the GI50 [5] was > 100 µM (inactive), the GI50 [6] was > 100 µM (inactive) and the GI50 [7] was 83.9 µM (inactive). For the same molecule, the GI50 [8] was > 100 µM (inactive), the GI50 [9] was 0.159 µM (active) and the GI50 [10] was > 100 µM (inactive). For the same molecule, the GI50 [11] was > 100 µM (inactive), the GI50 [13] was > 100 µM (inactive) and the GI50 [14] was > 100 µM (inactive). The GI50 [20] was > 100 µM (inactive), the GI50 [15] was > 100 µM (inactive) and the GI50 [16] was > 100 µM (inactive). For the same molecule, the GI50 [17] was > 100 µM (inactive), the GI50 [18] was > 100 µM (inactive) and the GI50 [19] was > 100 µM (inactive).

For `O=Cc1c(-c2ccccc2)nc2ccccc2c1O`, the GI50 [1] was 81.8 µM (inactive), the GI50 [2] was > 100 µM (inactive) and the GI50 [3] was 43.4 µM (inactive). The GI50 [4] was > 100 µM (inactive), the GI50 [6] was > 100 µM (inactive) and the GI50 [7] was 30.1 µM (inactive). For the same molecule, the GI50 [8] was 68.2 µM (inactive), the GI50 [9] was 39.3 µM (inactive) and the GI50 [10] was 75.7 µM (inactive). The GI50 [11] was 50.8 µM (inactive), the GI50 [12] was > 100 µM (inactive) and the GI50 [13] was 36.5 µM (inactive). The GI50 [14] was > 100 µM (inactive), the GI50 [20] was > 100 µM (inactive) and the GI50 [15] was > 100 µM (inactive). For the same molecule, the GI50 [16] was 34.5 µM (inactive), the GI50 [17] was < 0.01 µM (active) and the GI50 [18] was 64.6 µM (inactive). For the same molecule, the GI50 [19] was 55.8 µM (inactive).

For `O=c1c(Br)c(-c2ccccc2)[s+]([O-])c2ccccc12` (centres undefined), the GI50 [2] was 2.52 µM (inactive), the GI50 [3] was 9.12 µM (inactive) and the GI50 [4] was 14.2 µM (inactive). The GI50 [5] was 2.11 µM (inactive), the GI50 [6] was 10.5 µM (inactive) and the GI50 [7] was 25.1 µM (inactive). The GI50 [8] was 12.9 µM (inactive), the GI50 [9] was 2.96 µM (inactive) and the GI50 [10] was 16 µM (inactive). The GI50 [11] was 1.68 µM (inactive), the GI50 [12] was 21.5 µM (inactive) and the GI50 [13] was 7.78 µM (inactive). For the same molecule, the GI50 [14] was 13 µM (inactive), the GI50 [20] was 18.4 µM (inactive) and the GI50 [15] was 18.2 µM (inactive). The GI50 [16] was 16.2 µM (inactive), the GI50 [17] was 2.06 µM (inactive) and the GI50 [18] was 2.8 µM (inactive). The GI50 [19] was 13.7 µM (inactive).
